Measured values published in US5776461A, “Cosmetic compositions containing phytovitamin D” (Chesebrough-Pond's USA Co., Division of Conopco, Inc., priority 1996, dated 1998).
“Also recorded” adds a separate entry of the source.

Assays:
HL-60 cells = experiment: HL-60 cell differentiation assay (nonspecific esterase expression); type: cell-based; conditions: for HL-60 differentiation activity (in words): pure vitamin D compounds; for % differentiation: 48 hrs
From the text: This test can be utilized to assess the vitamin D content of plant extracts after converting the glycosides and other hydroxylated forms of vitamin D to 1,25-(OH)2 D. One can achieve this by following the procedure: [drawing 2] Glycosidases cleave vitamin D glycosides to the aglycone form (free steroid form). […] This can be again extracted into chloroform phase and redissolved in ethanol and tested in the HL-60 cell differentiation assay. Using this procedure, the glycosylated and nonglycosylated forms of 25-D and 1,25-(OH)2 D of both vitamin D2 and D3 can be quantitated in HL-60 cell differentiation assay.
a. Plant Extract preparation: The plant extracts are prepared by extracting the dry plant powders with ethanol or other solvents by stirring 1 part of the plant material with 5 to 10 parts of the solvent for 3 to 18 hours at room temperature. Suitable solvents are described hereinbelow. The extracts are clarified by filtration, then dried by evaporation to obtain a dried plant extract.
b. Treatment of Dried Plant Extracts with Glycosidase: 50 mg of dried plant extract are resuspended in 4 ml citrate-phosphate buffer and incubated overnight with a glycosidase enzyme (e.g., from an almond meal extract). After incubation, the mixture is extracted with chloroform. The chloroform phase containing the nonglycosylated vitamin D compounds is dried and resuspended in ethanol at a concentration of 5 mg/ml of ethanol.
c. Hydroxylase Treatment of product of step (b) (Non-Glycosylated Vitamin D Compounds): Human keratinocytes in culture express high amounts of 25(OH) vitamin D 1-a hydroxylase activity. For converting into the 1,25-(OH)2 D, which is detected by the product of step (b) in the HL-60 assay, is treated with a keratinocyte homogenate for 1 hour at 37° C. (50 μl of the product of step b with 1 ml of cell homogenate containing 100-200 μg cell protein). After the treatment, the mixture is extracted with chloroform:methanol (1:1), the chloroform phase is dried down, resuspended in ethanol and used in the HL-60 cell differentiation assay.
d. HL-60 Cell Differentiation Assay: The differentiation of HL-60 cells can be assessed by a simple cytochemical method for the expression of non-specific esterase activity (expressed only in the differentiated monocyte/macrophage phenotype) using α-naphthyl acetate as a substrate. HL-60 cell line is obtained (e.g. from American Type Culture Collection (ATCC)) and cultures are established in the laboratory (e.g. using RPMI medium containing 20% fetal calf serum (FCS)). For incubation with the different plant extracts, cells are washed in phosphate buffered saline (PBS), then resuspended in RPMI medium containing 10% FCS and plated at a density of 750,000 cells per 1 ml in 6 well plates. The plates are then treated with either standard 1,25-(OH)2 D (0.1 to 100 nM) or the different plant extracts in ethanol, using a maximum ethanol concentration of 5 μl/ml of medium. The cells are treated for 48 hrs before processing for the esterase cytochemical assay.
Expression of nonspecific esterase in HL-60 cells is determined after mounting the cells onto slides using Cytospin. The slides are then fixed in citrateacetone-methanol for 1 min at room temperature, washed in deionized water and air dried for 20 min. The substrate solution for esterase is prepared according to the procedure provided by Sigma by adding 1 capsule of Fast Blue RR salt to 50 ml Trizma buffer (pH 7.6)and 2 ml of α-naphthyl acetate solution. The slides are incubated at 37° C. in this solution for 30 min in the dark. The slides are washed for 3 min in water, counterstained using Mayer's Hematoxylin solution air dried and viewed under microscope. The number of cells showing dark brown precipitate indicating esterase activity is counted and calculated as a percent of the total number of cells in 6 different areas of the slide (approximately 500 total cells).

[1] = test system: adult human keratinocytes; experiment: cornified envelope formation of adult human keratinocytes; type: cell-based; conditions: Table 6; no almond meal extract, 48 hrs; 1,25-OH2 D at 1 nM
Description: In this method, keratinocytes were treated with the various extracts dissolved in ethanol (as described for the HL-60 assay) for 48 hrs in the presence of 5 uCi of 35S methionine included in the medium. The labelled methionine gets incorporated into the newly synthesized proteins during this 48 hr. period, including the proteins required for the formation of cornified envelopes. […] This treatment allows Ca to flow into the cells, maximally activate the enzyme transglutaminase and crosslinks all the labelled cornified envelope precursor proteins to form labelled cornified envelopes. The cells were then dissolved in 2%SDS/40 mM DTT, and the amount of insoluble cornified envelopes was quantitated by scintillation counting after separating from the soluble proteins by filtration on 0.2 micron filters.

[2] = test system: vitamin D binding protein; conditions: 25-D = 100%; cited from earlier work
keratinocyte = conditions: cited from earlier work
[3] = test system: Cultured Human Keratinocytes; conditions: cited from earlier work

Row | Compound | HL-60 differentiation activity (in words) (HL-60 cells) | detection (cross-reactivity) in vitamin D binding assay [2] | % differentiation (HL-60 cells; 0.1 nM) | % differentiation (HL-60 cells; 1 nM) | % differentiation (HL-60 cells; 10 nM) | % differentiation (HL-60 cells; 100 nM) | further results
1 | C=C1/C(=C\C=C2/CCC[C@]3(C)[C@@H]([C@H](C)CCC(O)C(C)(C)O)CC[C@@H]23)C[C@@H](O)CC1O (stereo partly drawn) [1,24,25-D(OH)3] | inactive at all concentrations | – | – | – | – | – | –
2 | C=C1/C(=C\C=C2/CCC[C@]3(C)[C@@H]([C@H](C)CCCC(C)(C)O)CC[C@@H]23)C[C@@H](O)C[C@@H]1O [1,25-(OH)2 D, 1,25-Dihydroxyvitamin D3] | induces HL-60 cell differentiation in a dose-dependent manner; also recorded: promoted | 4% | 5% | 50% | 90% | 95% | cornified envelope formation, no hydrolysis [1]: 207.6 % of control; lowest concentration at which differentiation ability could be detected (HL-60 cells; HL-60, 48 hrs): 0.1 nM; EC50 (HL-60 cells; HL-60, 48 hrs, read-out: concentration for half maximal differentiation): 1 nM
3 | C=C1CC[C@H](O)C/C1=C/C=C1\CCC[C@]2(C)[C@@H]([C@H](C)CCC(O)C(C)(C)O)CC[C@@H]12 (stereo partly drawn) [24,25(OH)2 D] | – | 70% | – | – | – | – | –
4 | C=C1CC[C@H](O)C/C1=C/C=C1\CCC[C@]2(C)[C@@H]([C@H](C)CCCC(C)(C)O)CC[C@@H]12 [25-D, 25-hydroxycholecalciferol] | inactive at all concentrations | 100% | – | 0% | 0% | 0% | HL-60 differentiation activity (in words) (HL-60 cells; listed as 25D): do not induce its differentiation
5 | C=C1CC[C@H](O)C/C1=C/C=C1\CCC[C@]2(C)[C@@H]([C@H](C)CCCC(C)C)CC[C@@H]12 [Vitamin D3, cholecalciferol] | – | – | 0% | 0% | 0% | 0% | keratinocyte prodifferentiating activity (in words) (keratinocyte; applied topically to skin): neither has keratinocyte prodifferentiating activity; conversion in skin to 25-D (in words) [3]: nor is it converted in the skin to 25-D
6 | Vitamin D | – | 0.4% | – | – | – | – | biological activity (in words) (keratinocyte; vitamin D per se): biologically inactive; HL-60 differentiation activity (in words) (HL-60 cells; listed as non-hydroxylated vitamin D): inactive at all concentrations; HL-60 differentiation activity (in words) (HL-60 cells; listed as nonhydroxylated vitamin D): do not induce its differentiation
